{"source": "BindingDB's records for patent US20250091994", "about": "(Kobe University, 2025)", "biological_target": "GTPase HRas [G12V] (Homo sapiens, UniProt P01112, G12V)", "sequence (P01112 whole entry G12V, looked up)": "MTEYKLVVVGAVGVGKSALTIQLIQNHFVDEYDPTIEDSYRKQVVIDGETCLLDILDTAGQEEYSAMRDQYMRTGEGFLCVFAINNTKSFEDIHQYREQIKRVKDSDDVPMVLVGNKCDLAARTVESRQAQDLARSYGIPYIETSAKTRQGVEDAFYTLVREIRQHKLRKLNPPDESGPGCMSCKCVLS", "assay": "In Vitro Ras-Raf Binding Inhibitory Activity Assay", "method": "The in vitro Ras-Raf binding inhibitory activity of the compound of the present invention was evaluated by an ELISA method described below. GST-c-Raf-1 RBD diluted with a Ras-Raf binding buffer (50 mM Tris-HCl pH7.4, 150 mM NaCl, 5 mM MgCl2, 1 mM EDTA, and 1% Triton-X100) was added to each well of a glutathione-coated 96-well plate (Thermo Fisher Scientific.), and was incubated at 30° C. for 1 hour, to immobilize Raf on the well. The unbound free Raf was eliminated by washing the well with the Ras-Raf binding buffer three times. Subsequently, GTPTS-bound HRasG12V diluted with the Ras-Raf binding buffer and each compound solution (final DMSO concentration: 10%) were applied to each well, and the resulting mixture was then incubated at 30° C. for 1 hour, so that Ras and Raf were allowed to bind to each other. Thereafter, the plate was washed with the Ras-Raf binding buffer twice, and was then subjected to a blocking treatment at room temperature for 20 minutes, using TBS-Tween {10 mM Tris-HCl pH 7.4, 150 mM NaCl, and 0.05% (w/v) Tween-20}-5% (w/v) bovine serum albumin (BSA). After that, an anti-HRas antibody (C-20, Santa Cruz) or an anti-HRas antibody (259, Santa Cruz), which had been 1000 times diluted with TBS-Tween-5% BSA, was added to the reaction mixture, and incubated at room temperature for 1 hours. After the treatment with the primary antibody, the plate was washed with TBS-Tween-5% BSA three times, and a horseradish peroxidase-labeled secondary antibody against rabbit immunoglobulin G (GE Healthcare) of 1000 times diluted with TBS-Tween-5% BSA, was added to the plate, followed by incubation at room temperature for 1 hour. After the treatment with the secondary antibody, the plate was washed with TBS-Tween-5% BSA three times, and a substrate solution (TMB) was then added to the plate, followed by incubation at room temperature for 15 minutes for coloration. Finally, 2 M H2SO4 was added to stop color development (coloration reaction kit: Nacalai Tesque).", "note": "pIC50: −log10 of the molar value."}
{"smiles": "COc1cc(/C=C2/C(=O)c3ccccc3N2C(C)=O)ccc1OCC(N)=O", "note": "[US20250091994, Example 1]", "values": [{"measurement": "pIC50", "value": 5.16}]}
{"smiles": "COc1cc(/C=C2/C(=O)c3ccccc3N2C(C)=O)ccc1OCC(=O)N1CCOCC1", "note": "[US20250091994, Example 2]", "values": [{"measurement": "pIC50", "value": 5.10}]}
{"smiles": "CCOc1cc(/C=C2/C(=O)c3ccccc3N2C(C)=O)ccc1OCC(N)=O", "note": "[US20250091994, Example 13]", "values": [{"measurement": "pIC50", "value": 5.60}]}
{"smiles": "COc1cc(/C=C2/C(=O)c3ccccc3N2C(C)=O)ccc1OCC(=O)N1CCCC1", "note": "[US20250091994, Example 14]", "values": [{"measurement": "pIC50", "value": 5.24}]}
{"smiles": "COc1cc(/C=C2/C(=O)c3ccccc3N2C(C)=O)ccc1OCC(=O)Nc1ccccc1", "note": "[US20250091994, Example 15]", "values": [{"measurement": "pIC50", "value": 5.14}]}
{"smiles": "CC(=O)N1C(=Cc2ccc(OCC(N)=O)c(Cl)c2)C(=O)c2ccccc21", "note": "[US20250091994, Example 17]", "values": [{"measurement": "pIC50", "value": 5.02}]}
{"smiles": "COc1cc(/C=C2/C(=O)c3ccccc3N2C(C)=O)ccc1/C=C/C(N)=O", "note": "[US20250091994, Example 20]", "values": [{"measurement": "pIC50", "value": 5.00}]}
{"smiles": "COc1cc(/C=C2/C(=O)c3ccccc3N2C(C)=O)ccc1OS(C)(=O)=O", "note": "[US20250091994, Example 21]", "values": [{"measurement": "pIC50", "value": 5.14}]}
{"smiles": "CC(=O)N1/C(=C\\c2ccc(OCC(=O)N3CCOCC3)cn2)C(=O)c2ccccc21", "note": "[US20250091994, Example 22]", "values": [{"measurement": "pIC50", "value": 4.89}]}
{"smiles": "COc1cc(/C=C2/C(=O)c3ccccc3N2C(C)=O)ccc1OCS(C)(=O)=O", "note": "[US20250091994, Example 24]", "values": [{"measurement": "pIC50", "value": 5.68}]}
{"smiles": "COc1cc(/C=C2/C(=O)c3ccccc3N2C(C)=O)ccc1OC[S+](C)[O-]", "note": "(stereo not drawn) [US20250091994, Example 25]", "values": [{"measurement": "pIC50", "value": 5.23}]}
{"smiles": "COc1cc(/C=C2/C(=O)c3ccccc3N2C(C)=O)ccc1NC(=O)CN1CCOCC1", "note": "[US20250091994, Example 27]", "values": [{"measurement": "pIC50", "value": 5.57}]}
{"smiles": "CC(=O)N1C(=Cc2ccc3cc(C(=O)N4CCOCC4)ccc3n2)C(=O)c2ccccc21", "note": "[US20250091994, Example 28]", "values": [{"measurement": "pIC50", "value": 6.06}]}
{"smiles": "CC(=O)N1C(=Cc2ccc(OCC(=O)N3CCOCC3)c(-c3ccccc3)c2)C(=O)c2ccccc21", "note": "[US20250091994, Example 29]", "values": [{"measurement": "pIC50", "value": 4.89}]}
{"smiles": "COc1cc(/C=C2/C(=O)c3ccccc3N2C(C)=O)ccc1CCC(N)=O", "note": "[US20250091994, Example 31]", "values": [{"measurement": "pIC50", "value": 4.89}]}
{"smiles": "CC(=O)N1/C(=C\\c2ccc3cc(C#N)ccc3n2)C(=O)c2ccccc21", "note": "[US20250091994, Example 34]", "values": [{"measurement": "pIC50", "value": 5.55}]}
{"smiles": "CC(=O)N1/C(=C\\c2ncc(C(=O)N3CCOCC3)s2)C(=O)c2ccccc21", "note": "[US20250091994, Example 38]", "values": [{"measurement": "pIC50", "value": 5.43}]}
{"smiles": "CC(=O)N1/C(=C\\c2ccc3cc(C(=O)N4CCN(C5COC5)CC4)ccc3n2)C(=O)c2ccccc21", "note": "[US20250091994, Example 41]", "values": [{"measurement": "pIC50", "value": 5.33}]}
{"smiles": "COCC(O)CN1CCN(C(=O)c2ccc3nc(/C=C4/C(=O)c5ccccc5N4C(C)=O)ccc3c2)CC1", "note": "(stereo not drawn) [US20250091994, Example 42]", "values": [{"measurement": "pIC50", "value": 5.55}]}
{"smiles": "CC(=O)N1/C(=C/c2nc3ccc(/C=C/S(=O)(=O)N4CCOCC4)cc3s2)C(=O)c2ccccc21", "note": "[US20250091994, Example 43]", "values": [{"measurement": "pIC50", "value": 5.15}]}
{"smiles": "CC(=O)N1/C(=C\\c2ccc3cc(C(=O)N4CC(C)OC(C)C4)ccc3n2)C(=O)c2ccccc21", "note": "(stereo not drawn) [US20250091994, Example 44]", "values": [{"measurement": "pIC50", "value": 6.02}]}
{"smiles": "CC(=O)N1/C(=C\\c2ccc3cc(CCC(=O)N4CCOCC4)ccc3n2)C(=O)c2ccccc21", "note": "[US20250091994, Example 45]", "values": [{"measurement": "pIC50", "value": 5.92}]}
{"smiles": "CC(=O)N1/C(=C/c2nc3cc(C(=O)N4CCOCC4)ccc3s2)C(=O)c2ccccc21", "note": "[US20250091994, Example 48]", "values": [{"measurement": "pIC50", "value": 5.46}]}
{"smiles": "COc1cc(/C=C2/C(=O)c3ccccc3N2C(=O)c2ccccc2)ccc1OCC(N)=O", "note": "[US20250091994, Example 49]", "values": [{"measurement": "pIC50", "value": 4.89}]}
{"smiles": "COc1cc(/C=C2/C(=O)c3cc(F)ccc3N2C(C)=O)ccc1OCC(=O)N1CCOCC1", "note": "[US20250091994, Example 50]", "values": [{"measurement": "pIC50", "value": 4.92}]}
{"smiles": "COc1cc(/C=C2/C(=O)c3cccnc3N2C(C)=O)ccc1OCC(=O)N1CCOCC1", "note": "[US20250091994, Example 51]", "values": [{"measurement": "pIC50", "value": 5.68}]}
{"smiles": "CC(=O)N1/C(=C/c2nc(C(=O)N3CCOCC3)cs2)C(=O)c2ccccc21", "note": "[US20250091994, Example 55]", "values": [{"measurement": "pIC50", "value": 5.19}]}
{"smiles": "CC(=O)N1/C(=C/c2nc3ccc(CNS(C)(=O)=O)cc3s2)C(=O)c2ccccc21", "note": "[US20250091994, Example 56]", "values": [{"measurement": "pIC50", "value": 6.24}]}
{"smiles": "CC(=O)N1/C(=C/c2nc3ccc(C(=O)N4CCOCC4)cc3s2)C(=O)c2ccccc21", "note": "[US20250091994, Example 58]", "values": [{"measurement": "pIC50", "value": 6.15}]}
{"smiles": "CC(=O)N1/C(=C\\c2nc3ccc(C(=O)N4CCOCC4)cc3s2)C(=O)c2ccccc21", "note": "[US20250091994, Example 59]", "values": [{"measurement": "pIC50", "value": 5.40}]}
{"smiles": "CC(=O)N1C(=Cc2ccc3ccc(C(=O)N4CCOCC4)cc3n2)C(=O)c2ccccc21", "note": "[US20250091994, Example 62]", "values": [{"measurement": "pIC50", "value": 5.25}]}
{"smiles": "CC(=O)NCc1ccc2nc(/C=C3/C(=O)c4ccccc4N3C(C)=O)ccc2c1", "note": "[US20250091994, Example 63]", "values": [{"measurement": "pIC50", "value": 5.70}]}
{"smiles": "CC(=O)N1C(=Cc2ccc3cc(CNS(C)(=O)=O)ccc3n2)C(=O)c2ccccc21", "note": "[US20250091994, Example 64]", "values": [{"measurement": "pIC50", "value": 5.96}]}
{"smiles": "CC(=O)N1/C(=C\\c2ccc3cc(OCC(=O)N4CCOCC4)ccc3n2)C(=O)c2ccccc21", "note": "[US20250091994, Example 65]", "values": [{"measurement": "pIC50", "value": 5.62}]}
{"smiles": "CC(=O)N1C(=Cc2ccc3cc(C(=O)N4CCOCC4)ccc3c2)C(=O)c2ccccc21", "note": "[US20250091994, Example 66]", "values": [{"measurement": "pIC50", "value": 5.64}]}
{"smiles": "CC(=O)N1C(=Cc2ccc(C(=O)N3CCOCC3)cc2)C(=O)c2ccccc21", "note": "[US20250091994, Example 67]", "values": [{"measurement": "pIC50", "value": 5.25}]}
{"smiles": "CC(=O)N1/C(=C/c2ncc(C(=O)N3CCOCC3)s2)C(=O)c2ccccc21", "note": "[US20250091994, Example 68]", "values": [{"measurement": "pIC50", "value": 5.64}]}
{"smiles": "CC(=O)N1/C(=C\\c2ccc3cc(CN(C(C)=O)C4CCOCC4)ccc3n2)C(=O)c2ccccc21", "note": "[US20250091994, Example 75]", "values": [{"measurement": "pIC50", "value": 5.68}]}
{"smiles": "CC(=O)N1/C(=C\\c2ccc3cc(CN(C4CCOCC4)S(C)(=O)=O)ccc3n2)C(=O)c2ccccc21", "note": "[US20250091994, Example 76]", "values": [{"measurement": "pIC50", "value": 5.80}]}
{"smiles": "CC(=O)N1C(=Cc2ccc3cc(/C=C/C(=O)NC4CCN(C5COC5)CC4)ccc3n2)C(=O)c2ccccc21", "note": "[US20250091994, Example 79]", "values": [{"measurement": "pIC50", "value": 5.96}]}
{"smiles": "CC(=O)N1/C(=C\\c2ccc3cc(CNC(=O)CN4CCOCC4)ccc3n2)C(=O)c2ccccc21", "note": "[US20250091994, Example 80]", "values": [{"measurement": "pIC50", "value": 6.05}]}
{"smiles": "CC(=O)N1/C(=C\\c2cc(N=[N+]=[N-])c3cc(C(=O)N4CCOCC4)ccc3n2)C(=O)c2ccccc21", "note": "[US20250091994, Example 81]", "values": [{"measurement": "pIC50", "value": 5.96}]}
{"smiles": "CC(=O)N1/C(=C\\c2cc(Cl)c3cc(C(=O)N4CCOCC4)ccc3n2)C(=O)c2ccccc21", "note": "[US20250091994, Example 82]", "values": [{"measurement": "pIC50", "value": 6.21}]}
{"smiles": "CC(=O)N1C(=Cc2cc(-c3ccccc3)c3cc(C(=O)N4CCOCC4)ccc3n2)C(=O)c2ccccc21", "note": "[US20250091994, Example 83]", "values": [{"measurement": "pIC50", "value": 6.08}]}
{"smiles": "CCCCOc1cc(/C=C2/C(=O)c3ccccc3N2C(C)=O)nc2ccc(C(=O)N3CCOCC3)cc12", "note": "[US20250091994, Example 84]", "values": [{"measurement": "pIC50", "value": 6.24}]}
{"smiles": "CC(=O)N1/C(=C\\c2cc(-c3cccnc3)c3cc(C(=O)N4CCOCC4)ccc3n2)C(=O)c2ccccc21", "note": "[US20250091994, Example 85]", "values": [{"measurement": "pIC50", "value": 6.24}]}
{"smiles": "CC(=O)N1/C(=C\\c2cc(C#N)c3cc(C(=O)N4CCOCC4)ccc3n2)C(=O)c2ccccc21", "note": "[US20250091994, Example 86]", "values": [{"measurement": "pIC50", "value": 5.74}]}
{"smiles": "CC(=O)N1/C(=C\\c2cc(N3CCC(C#N)CC3)c3cc(C(=O)N4CCOCC4)ccc3n2)C(=O)c2ccccc21", "note": "[US20250091994, Example 87]", "values": [{"measurement": "pIC50", "value": 5.68}]}
